Data published in patent US20240109917A1 (ACTELION PHARMACEUTICALS LTD, priority 2020, published 2024).

Key:
[1] = target: His6-TEV-PDGFRβ (557-1016) (Homo sapiens (Human), UniProt P09619); experiment: PDGFRβ HTRF Assay; type: biochemical; settings: read-out: PDGFR HTRF IC50
Method in brief: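 HTRF KinEASE-TK readout (665/620 nm ratio) of TK-biotin substrate phosphorylation by His-tagged PDGFRβ kinase domain. Enzyme and inhibitor preincubated 30 min, then ATP/substrate added for 3 h at room temperature before 60 min EDTA quench/detection.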

VEGFR2, unphosphorylated = VEGFR2, unphosphorylated (Homo sapiens (Human), UniProt P35968); experiment: VEGFR ADP GLO Assay; type: biochemical
Sequence of VEGFR2, unphosphorylated (P35968 20-1356): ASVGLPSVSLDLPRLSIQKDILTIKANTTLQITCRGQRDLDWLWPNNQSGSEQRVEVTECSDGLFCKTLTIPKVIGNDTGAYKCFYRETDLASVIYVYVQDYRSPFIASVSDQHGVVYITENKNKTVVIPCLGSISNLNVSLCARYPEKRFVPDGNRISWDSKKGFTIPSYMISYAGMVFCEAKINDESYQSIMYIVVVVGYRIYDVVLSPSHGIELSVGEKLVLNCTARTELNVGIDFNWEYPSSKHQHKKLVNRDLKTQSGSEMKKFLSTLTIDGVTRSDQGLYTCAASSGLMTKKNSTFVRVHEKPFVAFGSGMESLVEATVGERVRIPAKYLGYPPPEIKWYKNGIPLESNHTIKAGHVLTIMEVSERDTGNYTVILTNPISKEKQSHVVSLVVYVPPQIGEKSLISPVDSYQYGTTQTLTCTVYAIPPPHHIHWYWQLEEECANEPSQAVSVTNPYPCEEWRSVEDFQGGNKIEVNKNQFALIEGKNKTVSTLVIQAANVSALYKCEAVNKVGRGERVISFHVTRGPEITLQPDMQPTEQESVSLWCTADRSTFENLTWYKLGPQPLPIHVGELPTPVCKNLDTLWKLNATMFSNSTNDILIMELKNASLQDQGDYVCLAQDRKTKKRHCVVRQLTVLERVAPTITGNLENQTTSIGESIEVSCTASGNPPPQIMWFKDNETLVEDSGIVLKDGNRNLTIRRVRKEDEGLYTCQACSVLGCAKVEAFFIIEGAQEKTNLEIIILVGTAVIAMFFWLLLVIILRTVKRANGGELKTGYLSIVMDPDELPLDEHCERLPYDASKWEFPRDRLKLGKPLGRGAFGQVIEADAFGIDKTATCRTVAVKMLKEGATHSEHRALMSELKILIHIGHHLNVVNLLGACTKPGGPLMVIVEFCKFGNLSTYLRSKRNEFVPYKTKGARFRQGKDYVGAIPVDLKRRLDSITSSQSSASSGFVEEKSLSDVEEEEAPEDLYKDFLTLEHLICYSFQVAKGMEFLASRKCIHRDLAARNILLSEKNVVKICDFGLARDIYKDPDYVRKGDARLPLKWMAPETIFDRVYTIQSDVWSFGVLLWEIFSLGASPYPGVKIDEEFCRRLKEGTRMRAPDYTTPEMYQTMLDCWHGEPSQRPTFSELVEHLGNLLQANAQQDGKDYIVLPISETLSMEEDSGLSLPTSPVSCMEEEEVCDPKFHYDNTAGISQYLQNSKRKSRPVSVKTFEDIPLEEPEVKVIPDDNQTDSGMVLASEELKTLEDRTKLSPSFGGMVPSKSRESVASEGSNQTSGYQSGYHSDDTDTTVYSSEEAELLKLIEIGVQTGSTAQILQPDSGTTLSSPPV

Sequence of His6-TEV-PDGFRβ (557-1016) (P09619 557-1016): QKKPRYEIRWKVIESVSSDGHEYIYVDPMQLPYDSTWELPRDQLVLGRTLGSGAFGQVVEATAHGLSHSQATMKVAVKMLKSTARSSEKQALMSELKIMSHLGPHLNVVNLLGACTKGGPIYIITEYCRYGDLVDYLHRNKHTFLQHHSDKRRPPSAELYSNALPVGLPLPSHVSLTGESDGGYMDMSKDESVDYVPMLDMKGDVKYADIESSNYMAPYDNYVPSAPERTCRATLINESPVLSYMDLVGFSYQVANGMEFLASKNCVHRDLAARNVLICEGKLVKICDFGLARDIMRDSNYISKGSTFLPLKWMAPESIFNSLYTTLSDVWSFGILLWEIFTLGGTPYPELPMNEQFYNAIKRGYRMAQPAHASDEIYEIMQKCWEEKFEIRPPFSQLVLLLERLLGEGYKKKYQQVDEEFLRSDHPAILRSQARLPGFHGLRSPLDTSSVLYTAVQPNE

SMILES	IC50 [1]	IC50 (VEGFR2, unphosphorylated)
Cc1ncc(NC(=O)CCN2CCCC2(C)C)cc1NC(=O)c1cnn2cc(-n3ncc4cccnc43)sc12 [Example 260, N-(5-(3-(2,2-dimethylpyrrolidin-1-yl)propanamido)-2-methylpyridin-3-yl)-2-(1H-pyrazolo[3,4-b]pyridin-1-yl)pyrazolo[5,1-b]thiazole-7-carboxamide]	0.3 nM	> 7500 nM
COc1ncccc1-c1cn2ncc(C(=O)Nc3cc(NC(=O)CN4CCC5(CCOC5)C4)cnc3C)c2s1 (stereo not shown) [Example 320, N-(5-(2-(2-oxa-7-azaspiro[4.4]nonan-7-yl)acetamido)-2-methylpyridin-3-yl)-2-(2-methoxypyridin-3-yl)pyrazolo[5,1-b]thiazole-7-carboxamide]	0.2 nM	> 7500 nM
COc1ncccc1-c1cn2ncc(C(=O)Nc3cc(NC(=O)C4CCCCN4C(C)C)cnc3C)c2s1 (stereo not shown) [Example 315, N-(5-(1-isopropylpiperidine-2-carboxamido)-2-methylpyridin-3-yl)-2-(2-methoxypyridin-3-yl)pyrazolo[5,1-b]thiazole-7-carboxamide]	0.3 nM	4990 nM
Cc1ncc(NC(=O)CN2CC(C)(C)C2)cc1NC(=O)c1cnn2cc(-c3cnn(C4COC4)c3)sc12 [Example 264, N-(5-(2-(3,3-dimethylazetidin-1-yl)acetamido)-2-methylpyridin-3-yl)-2-(1-(oxetan-3-yl)-1H-pyrazol-4-yl)pyrazolo[5,1-b]thiazole-7-carboxamide]	0.4 nM	> 7500 nM
COCCn1cc(-c2cn3ncc(C(=O)Nc4cc(NC(=O)CN5CCC[C@H]5C)cnc4C)c3s2)cn1 [Example 330, (R)-2-(1-(2-methoxyethyl)-1H-pyrazol-4-yl)-N-(2-methyl-5-(2-(2-methylpyrrolidin-1-yl)acetamido)pyridin-3-yl)pyrazolo[5,1-b]thiazole-7-carboxamide]	0.6 nM	> 7500 nM
Cc1ncc(NC(=O)CN2CC(C)(C)C2)cc1NC(=O)c1cnn2cc(-c3ccnc(N4CCOCC4)c3)sc12 [Example 284, N-(5-(2-(3,3-dimethylazetidin-1-yl)acetamido)-2-methylpyridin-3-yl)-2-(2-morpholinopyridin-4-yl)pyrazolo[5,1-b]thiazole-7-carboxamide]	0.2 nM	> 7500 nM
CC[C@H]1CN(CC(=O)Nc2cnc(C)c(NC(=O)c3cnn4cc(-c5cccnc5OC)sc34)c2)CCO1 [Example 311, (S)—N-(5-(2-(2-ethylmorpholino)acetamido)-2-methylpyridin-3-yl)-2-(2-methoxypyridin-3-yl)pyrazolo[5,1-b]thiazole-7-carboxamide]	0.2 nM	> 7500 nM
Cc1ncc(NC(=O)CN2CC(C)(C)C2)cc1NC(=O)c1cnn2cc(-c3cnn(-c4cccnc4)c3)sc12 [Example 289, N-(5-(2-(3,3-dimethylazetidin-1-yl)acetamido)-2-methylpyridin-3-yl)-2-(1-(pyridin-3-yl)-1H-pyrazol-4-yl)pyrazolo[5,1-b]thiazole-7-carboxamide]	0.3 nM	> 7500 nM
Cc1ncc(NC(=O)CN2CC(C)(C)C2)cc1NC(=O)c1cnn2cc(-c3cnn(C4CCS(=O)(=O)CC4)c3)sc12 [Example 280, N-(5-(2-(3,3-dimethylazetidin-1-yl)acetamido)-2-methylpyridin-3-yl)-2-(1-(1,1-dioxidotetrahydro-2H-thiopyran-4-yl)-1H-pyrazol-4-yl)pyrazolo[5,1-b]thiazole-7-carboxamide]	0.3 nM	> 7500 nM
Cc1ncc(NC(=O)CN2CC(C)(C)C2)cc1NC(=O)c1cnn2cc(-c3ccn(S(C)(=O)=O)c3)sc12 [Example 275, N-(5-(2-(3,3-dimethylazetidin-1-yl)acetamido)-2-methylpyridin-3-yl)-2-(1-(methylsulfonyl)-1H-pyrrol-3-yl)pyrazolo[5,1-b]thiazole-7-carboxamide]	0.2 nM	> 7500 nM
Cc1ncc(NC(=O)C(C)N2CCCCCC2)cc1NC(=O)c1cnn2cc(-c3cnn(C)c3)sc12 (stereo not shown) [Example 306, N-(5-(2-(azepan-1-yl)propanamido)-2-methylpyridin-3-yl)-2-(1-methyl-1H-pyrazol-4-yl)pyrazolo[5,1-b]thiazole-7-carboxamide]	0.5 nM	> 7500 nM
Cc1ncc(NC(=O)CN2CC(C)(C)C2)cc1NC(=O)c1cnn2cc(-c3ccoc3)sc12 [Example 283, N-(5-(2-(3,3-dimethylazetidin-1-yl)acetamido)-2-methylpyridin-3-yl)-2-(furan-3-yl)pyrazolo[5,1-b]thiazole-7-carboxamide]	0.1 nM	> 7500 nM
Cc1ncc(NC(=O)C2CCCCN2C(C)C)cc1NC(=O)c1cnn2cc(-c3cccnc3O)sc12 (stereo not shown) [Example 314, 2-(2-hydroxypyridin-3-yl)-N-(5-(1-isopropylpiperidine-2-carboxamido)-2-methylpyridin-3-yl)pyrazolo[5,1-b]thiazole-7-carboxamide]	2.5 nM	> 7500 nM
Cc1ncc(NC(=O)CN2CC(C)(C)C2)cc1NC(=O)c1cnn2cc(-c3cnn(CCO)c3)sc12 [Example 290, N-(5-(2-(3,3-dimethylazetidin-1-yl)acetamido)-2-methylpyridin-3-yl)-2-(1-(2-hydroxyethyl)-1H-pyrazol-4-yl)pyrazolo[5,1-b]thiazole-7-carboxamide]	0.4 nM	> 7500 nM
Cc1ncc(NC(=O)CN2CCCC2)cc1NC(=O)c1cnn2cc(-c3cccnc3O)sc12 [Example 312, 2-(2-hydroxypyridin-3-yl)-N-(2-methyl-5-(2-(pyrrolidin-1-yl)acetamido)pyridin-3-yl)pyrazolo[5,1-b]thiazole-7-carboxamide]	1.8 nM	> 7500 nM
Cc1ncc(NC(=O)CN2CC(C)(C)C2)cc1NC(=O)c1cnn2cc(-c3cc[nH]c3)sc12 [Example 285, N-(5-(2-(3,3-dimethylazetidin-1-yl)acetamido)-2-methylpyridin-3-yl)-2-(1H-pyrrol-3-yl)pyrazolo[5,1-b]thiazole-7-carboxamide]	0.1 nM	> 7500 nM
Cc1ncc(NC(=O)CN2CC(C)(C)C2)cc1NC(=O)c1cnn2cc(-c3cnn(CC#N)c3)sc12 [Example 266, 2-(1-(cyanomethyl)-1H-pyrazol-4-yl)-N-(5-(2-(3,3-dimethylazetidin-1-yl)acetamido)-2-methylpyridin-3-yl)pyrazolo[5,1-b]thiazole-7-carboxamide]	0.7 nM	> 7500 nM
Cc1ncc(NC(=O)CN2CCCC23COC3)cc1NC(=O)c1cnn2cc(-c3cnn(C)c3)sc12 [Example 20, N-(5-(2-(2-oxa-5-azaspiro[3.4]octan-5-yl)acetamido)-2-methyl-pyridin-3-yl)-2-(1-methyl-1H-pyrazol-4-yl)pyrazolo[5,1-b]thiazole-7-carboxamide]	0.7 nM	> 7500 nM
Cc1ncc(NC(=O)CN(C)C2CCOCC2)cc1NC(=O)c1cnn2cc(-c3cnn(C(F)F)c3)sc12 [Example 295, 2-(1-(difluoromethyl)-1H-pyrazol-4-yl)-N-(2-methyl-5-(2-(methyl(tetrahydro-2H-pyran-4-yl)amino)acetamido)pyridin-3-yl)pyrazolo[5,1-b]thiazole-7-carboxamide]	0.7 nM	> 7500 nM
Cc1ncc(NC(=O)CN(C)C2CCOCC2)cc1NC(=O)c1cnn2cc(-c3cnn(C4CC4)c3)sc12 [Example 294, 2-(1-cyclopropyl-1H-pyrazol-4-yl)-N-(2-methyl-5-(2-(methyl(tetrahydro-2H-pyran-4-yl)amino)acetamido)pyridin-3-yl)pyrazolo[5,1-b]thiazole-7-carboxamide]	0.3 nM	> 7500 nM
Cc1ncc(NC(=O)CN2CC(C)(C)C2)cc1NC(=O)c1cnn2cc(-c3c[nH]c4ccccc34)sc12 [Example 287, N-(5-(2-(3,3-dimethylazetidin-1-yl)acetamido)-2-methylpyridin-3-yl)-2-(1H-indol-3-yl)pyrazolo[5,1-b]thiazole-7-carboxamide]	0.1 nM	1740 nM
Cc1ncc(NC(=O)OC[C@@H]2CCCN2C)cc1NC(=O)c1cnn2cc(-c3cccc4c3cnn4C)sc12 [Example 257, (S)-(1-methylpyrrolidin-2-yl)methyl (6-methyl-5-(2-(1-methyl-1H-indazol-4-yl)pyrazolo[5,1-b]thiazole-7-carboxamido)pyridin-3-yl)carbamate]	0.2 nM	> 2500 nM
Cc1ncc(NC(=O)CN2CC(C)(C)C2)cc1NC(=O)c1cnn2cc(-c3cccc4c3cnn4C)sc12 [Example 286, N-(5-(2-(3,3-dimethylazetidin-1-yl)acetamido)-2-methylpyridin-3-yl)-2-(1-methyl-1H-indazol-4-yl)pyrazolo[5,1-b]thiazole-7-carboxamide]	0.1 nM	> 2500 nM
COc1ncccc1-c1cn2ncc(C(=O)Nc3cc(NC(=O)C[C@H]4CCCN4C(C)C)cnc3C)c2s1 [Example 309, (R)—N-(5-(2-(1-isopropylpyrrolidin-2-yl)acetamido)-2-methylpyridin-3-yl)-2-(2-methoxypyridin-3-yl)pyrazolo[5,1-b]thiazole-7-carboxamide]	0.2 nM	> 7500 nM
Cc1ncc(NC(=O)CN2CC(C)(C)C2)cc1NC(=O)c1cnn2cc(-c3ccc(CO)s3)sc12 [Example 278, N-(5-(2-(3,3-dimethylazetidin-1-yl)acetamido)-2-methylpyridin-3-yl)-2-(5-(hydroxymethyl)thiophen-2-yl)pyrazolo[5,1-b]thiazole-7-carboxamide]	0.2 nM	> 7500 nM
CNC(=O)Cn1cc(-c2cn3ncc(C(=O)Nc4cc(NC(=O)CN5CC(C)(C)C5)cnc4C)c3s2)cn1 [Example 279, N-(5-(2-(3,3-dimethylazetidin-1-yl)acetamido)-2-methylpyridin-3-yl)-2-(1-(2-(methylamino)-2-oxoethyl)-1H-pyrazol-4-yl)pyrazolo[5,1-b]thiazole-7-carboxamide]	0.4 nM	> 7500 nM
